Tested on: 695427-040-R-J1-PDC complex spheroid viability
Assay: Anticancer human tumor 695427-040-R-J1-PDC patient-derived colon adenocarcinoma cell line growth inhibition [POLQ]
Conditions: for IC50: curve of first compound; for viability, T/C: stronger effect = lower value
Protocol: Multicellular complex tumor spheroid response to Polymerase (POL) inhibitors (novobiocin, ART-558, RP6685) in combination with a variety of drugs and investigational agents in selected tumor cell lines
The POL inhibitors (novobiocin, ART-558, and RP6685) were evaluated both individually and in combination with standard of care and investigational anticancer small molecules within a complex spheroid model of solid tumors. . Complex spheroids include a stromal component modeled by human endothelial cells (HUVEC) and fibroblasts modeled by human mesenchymal stem cells (MSCs). The concentration ranges selected for each drug and investigational agent were based upon clinically achievable concentrations if the clinical Cmax of the agent was known.
Compounds. The drugs and investigational agents: novobiocin (NSC847541), ART-558 (NSC835418), RP-6685 (NSC848927), peposertib (NSC802822), ceralasertib (NSC780249), elimusertib (NSC800525), camonsertib (NSC841442), AZD-1390 (NSC803789), olaparib (NSC753686), talazoparib (NSC767125), rucaparib (NSC756644), sotorasib (NSC818433), MRTX-1133 (NSC836407), SN-38 (NSC673596), topotecan (NSC609699), epotoside (NSC141540), doxorubicin (NSC123127), gemcitabine (NSC613327), 5-fluorouracil (NSC19893), paclitaxel (NSC125973), vemurafenib (NSC761431), MSA-2 (NSC828583), SN-011 (NSC837082), adavosertib (NSC754352), prexasertib (NSC758257), carboplatin (NSC241240) and oxaliplatin (NSC266046), were obtained from the National Cancer Institute (NCI) Developmental Therapeutics Program Chemical Repository (21). The FDA-approved anticancer drug set is available from the Developmental Therapeutics Program at https://dtp.cancer.gov/organization/dscb/obtaining/. […] The stock solutions were prepared in dimethyl sulfoxide (DMSO, Sigma-Aldrich, St. Louis, MO, cat. D2650), except for the platinum compounds which were prepared in saline (Quality Biological, Gaithersburg, MD, cat. 114-055-101), at 800-fold the tested concentration and stored at -70 degrees C prior to their use. All drugs and investigational agents were tested over a range starting from a high concentration at or near the clinical Cmax and decreasing in half-log increments. If the clinical Cmax for an agent had not been determined, the highest concentration tested was 10 microM, except for SN-38, which was tested at a high concentration of 1 microM.
Cell Culture. All cells were maintained in an incubator at 37 degrees C and 5% CO2 with 95% humidity. The PDC lines were cultured according to standard operating procedures established by the NCI PDMR (https://pdmr.cancer.gov). Table 3 of the manuscript, lists the cell lines along with the number of the three cell types plated to form the mct-spheroids and media for tumor cell growth. After thawing, all PDC lines, except 997537-175-T-J1-PDC and 415267-285-R-J2-PDC, were cultured in Matrigel-coated flasks prepared with a working solution of 1X Ham's F-12 nutrient mix, without supplementation (Thermo Fisher Scientific, cat. 11765054), 100 U/mL penicillin-streptomycin (Thermo Fisher Scientific, cat. 15140122), and 2.5% Matrigel (Corning Inc., Corning, NY, cat. 354248) for the first three passages. The two PDC lines 997537-175-T-J1-PDC and 415267-285-R-J2-PDC were cultured on uncoated flasks. The 857933-349-R-J2-PDC line was cultured in 6C/Colon 1B media containing advanced DMEM/F-12 (Thermo Fisher Scientific, cat. 12634028), 10 mM HEPES (Thermo Fisher Scientific, cat. 15630080), 1X GlutaMAX supplement (Thermo Fisher Scientific, cat. 35050061), 0.1 mg/mL primocin (InvivoGen, San Diego, CA, cat. ant-pm-2), 10% defined fetal bovine serum, heat inactivated (HyClone Laboratories Inc., Logan, UT, cat. SH30070.03HI), 50% L-WRN conditioned media (ATCC, cat. CRL-3276), 1.25 mM N-Acetyl-L-cysteine (Sigma-Aldrich, cat. A9165), 10 mM nicotinamide (Sigma-Aldrich, cat. N0636), 1X B-27 supplement (Thermo Fisher Scientific, cat. 17504044), 1X N-2 supplement (Thermo Fisher Scientific, cat. […]

[1] = second compound 0.0316 µM, first compound 0.0316 µM
[2] = second compound 0.0316 µM, first compound 0.1 µM
[3] = second compound 0.0316 µM, first compound 0.316 µM
[4] = second compound 0.0316 µM, first compound 1 µM
[5] = second compound 0.0316 µM, first compound 3.16 µM
[6] = second compound 0.0316 µM, first compound 10 µM
[7] = second compound 0.1 µM, first compound 0.0316 µM
[8] = second compound 0.1 µM, first compound 0.1 µM
[9] = second compound 0.1 µM, first compound 0.316 µM
[10] = second compound 0.1 µM, first compound 1 µM
[11] = second compound 0.1 µM, first compound 3.16 µM
[12] = second compound 0.1 µM, first compound 10 µM
[13] = second compound 0.316 µM, first compound 0.0316 µM
[14] = second compound 0.316 µM, first compound 0.1 µM
[15] = second compound 0.316 µM, first compound 0.316 µM
[16] = second compound 0.316 µM, first compound 1 µM
[17] = second compound 0.316 µM, first compound 3.16 µM
[18] = second compound 0.316 µM, first compound 10 µM
[19] = second compound 1 µM, first compound 0.0316 µM
[20] = second compound 1 µM, first compound 0.1 µM
[21] = second compound 1 µM, first compound 0.316 µM
[22] = second compound 1 µM, first compound 1 µM
[23] = second compound 1 µM, first compound 3.16 µM
[24] = second compound 1 µM, first compound 10 µM
[25] = second compound 3.16 µM, first compound 0.0316 µM
[26] = second compound 3.16 µM, first compound 0.1 µM
[27] = second compound 3.16 µM, first compound 0.316 µM
[28] = second compound 3.16 µM, first compound 1 µM
[29] = second compound 3.16 µM, first compound 3.16 µM
[30] = second compound 3.16 µM, first compound 10 µM
[31] = second compound 10 µM, first compound 0.0316 µM
[32] = second compound 10 µM, first compound 0.1 µM
[33] = second compound 10 µM, first compound 0.316 µM
[34] = second compound 10 µM, first compound 1 µM
[35] = second compound 10 µM, first compound 3.16 µM
[36] = second compound 10 µM, first compound 10 µM
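Further: spheroids exposed to compounds for seven days.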
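Wherever viability, T/C is given: 100% = DMSO vehicle control viability.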

## C=CC(=O)N1CCN(c2nc(=O)n(-c3c(C)ccnc3C(C)C)c3nc(-c4c(O)cccc4F)c(F)cc23)C(C)C1 (stereo unspecified) + Nc1ccc(C#CCN(C(=O)Cc2ncc(C(F)(F)F)cc2C(F)(F)F)c2ccc(F)cc2)nn1
Second compound 0.0316 µM
  IC50: > 10 µM
Second compound 0.1 µM
  IC50: > 10 µM
Second compound 0.316 µM
  IC50: > 10 µM
Second compound 1 µM
  IC50: > 10 µM
Second compound 3.16 µM
  IC50: > 10 µM
Second compound 10 µM
  IC50: > 10 µM
[1]
  viability, T/C: 108%
[2]
  viability, T/C: 104%
[3]
  viability, T/C: 110%
[4]
  viability, T/C: 111%
[5]
  viability, T/C: 110%
[6]
  viability, T/C: 104%
[7]
  viability, T/C: 108%
[8]
  viability, T/C: 110%
[9]
  viability, T/C: 107%
[10]
  viability, T/C: 92.2%
[11]
  viability, T/C: 104%
[12]
  viability, T/C: 113%
[13]
  viability, T/C: 116%
[14]
  viability, T/C: 107%
[15]
  viability, T/C: 102%
[16]
  viability, T/C: 105%
[17]
  viability, T/C: 120%
[18]
  viability, T/C: 95.3%
[19]
  viability, T/C: 102%
[20]
  viability, T/C: 95.2%
[21]
  viability, T/C: 97.9%
[22]
  viability, T/C: 101%
[23]
  viability, T/C: 107%
[24]
  viability, T/C: 96.9%
[25]
  viability, T/C: 105%
[26]
  viability, T/C: 101%
[27]
  viability, T/C: 104%
[28]
  viability, T/C: 97.3%
[29]
  viability, T/C: 107%
[30]
  viability, T/C: 98.3%
[31]
  viability, T/C: 97.2%
[32]
  viability, T/C: 84.4%
[33]
  viability, T/C: 102%
[34]
  viability, T/C: 96.3%
[35]
  viability, T/C: 121%
[36]
  viability, T/C: 97.6%

## CCCS(=O)(=O)Nc1ccc(F)c(C(=O)c2c[nH]c3ncc(-c4ccc(Cl)cc4)cc23)c1F + Nc1ccc(C#CCN(C(=O)Cc2ncc(C(F)(F)F)cc2C(F)(F)F)c2ccc(F)cc2)nn1
Second compound 0.0316 µM
  IC50: > 10 µM
Second compound 0.1 µM
  IC50: > 10 µM
Second compound 0.316 µM
  IC50: > 10 µM
Second compound 1 µM
  IC50: > 10 µM
Second compound 3.16 µM
  IC50: > 10 µM
Second compound 10 µM
  IC50: > 10 µM
[1]
  viability, T/C: 101%
[2]
  viability, T/C: 100%
[3]
  viability, T/C: 102%
[4]
  viability, T/C: 111%
[5]
  viability, T/C: 117%
[6]
  viability, T/C: 88.8%
[7]
  viability, T/C: 112%
[8]
  viability, T/C: 108%
[9]
  viability, T/C: 105%
[10]
  viability, T/C: 106%
[11]
  viability, T/C: 113%
[12]
  viability, T/C: 87.1%
[13]
  viability, T/C: 100%
[14]
  viability, T/C: 108%
[15]
  viability, T/C: 107%
[16]
  viability, T/C: 102%
[17]
  viability, T/C: 106%
[18]
  viability, T/C: 85.4%
[19]
  viability, T/C: 103%
[20]
  viability, T/C: 99.9%
[21]
  viability, T/C: 107%
[22]
  viability, T/C: 102%
[23]
  viability, T/C: 110%
[24]
  viability, T/C: 81.7%
[25]
  viability, T/C: 109%
[26]
  viability, T/C: 100%
[27]
  viability, T/C: 103%
[28]
  viability, T/C: 107%
[29]
  viability, T/C: 111%
[30]
  viability, T/C: 88.8%
[31]
  viability, T/C: 95.1%
[32]
  viability, T/C: 92.8%
[33]
  viability, T/C: 110%
[34]
  viability, T/C: 95.3%
[35]
  viability, T/C: 97.2%
[36]
  viability, T/C: 85.7%

## Nc1ccn(C2OC(CO)C(O)C2(F)F)c(=O)n1 (stereo unspecified) + Nc1ccc(C#CCN(C(=O)Cc2ncc(C(F)(F)F)cc2C(F)(F)F)c2ccc(F)cc2)nn1
Second compound 0.0316 µM
  IC50: > 10 µM
Second compound 0.1 µM
  IC50: > 10 µM
Second compound 0.316 µM
  IC50: > 10 µM
Second compound 1 µM
  IC50: > 10 µM
Second compound 3.16 µM
  IC50: > 10 µM
Second compound 10 µM
  IC50: > 10 µM
[1]
  viability, T/C: 103%
[2]
  viability, T/C: 92.8%
[3]
  viability, T/C: 92.1%
[4]
  viability, T/C: 91.3%
[5]
  viability, T/C: 81.8%
[6]
  viability, T/C: 66.6%
[7]
  viability, T/C: 98%
[8]
  viability, T/C: 96.1%
[9]
  viability, T/C: 90.8%
[10]
  viability, T/C: 81.3%
[11]
  viability, T/C: 80.4%
[12]
  viability, T/C: 62.2%
[13]
  viability, T/C: 106%
[14]
  viability, T/C: 102%
[15]
  viability, T/C: 75.9%
[16]
  viability, T/C: 78%
[17]
  viability, T/C: 79%
[18]
  viability, T/C: 68.1%
[19]
  viability, T/C: 104%
[20]
  viability, T/C: 90.9%
[21]
  viability, T/C: 89.4%
[22]
  viability, T/C: 78.8%
[23]
  viability, T/C: 80.7%
[24]
  viability, T/C: 63.7%
[25]
  viability, T/C: 102%
[26]
  viability, T/C: 93.3%
[27]
  viability, T/C: 85.1%
[28]
  viability, T/C: 84.8%
[29]
  viability, T/C: 83.7%
[30]
  viability, T/C: 65.8%
[31]
  viability, T/C: 92.5%
[32]
  viability, T/C: 86.7%
[33]
  viability, T/C: 82.3%
[34]
  viability, T/C: 84.6%
[35]
  viability, T/C: 89.2%
[36]
  viability, T/C: 73.9%

From PubChem BioAssay AID1963840 (Molecular Pharmacology Branch, DTP, NCI, 2024)
